Here are results for 13 molecules from patent US4956368A, “Metabolites and prodrug formulations of 8-[4-[4-(1,2-benzisothiazol-3-yl)-1-piperazinyl]butyl]-8-azaspiro[4.5]de cane-7,9-dione” (Bristol-Myers Company, priority 1989, dated 1990).

Read-outs that look alike come from different tables or passages of the source.

The target in series [1] is Dopamine/Spiperone/neuroleptic receptor site. As to the kind of experiment: Receptor binding test RB1, [3H] Spiperone ligand, D(+)Butaclamol specific binding agent. An excerpt:
(§1) As indication of the psychotropic activity and specificity of a compound, state of the art in vitro central nervous system receptor binding (RB) methodology can be employed. […] Inhibition of radiolabeled ligand binding at such sites is considered a measure of the test compound's ability to affect corresponding central nervous system function in vivo.
(§2) Some of the more common binding tests employed are listed below in Table 1.

A further series addresses Alpha-1. The series is described as follows: Receptor binding test RB2, [3H] WB-4104 ligand, Phentolamine specific binding agent.
Description: as §1, §2

Series [2] deals with T1, Serotonin Type 2 (5-HT2) (Rattus norvegicus, UniProt P14842).
T1 construct: from tissue; frontal cortex in the cited method
The series is described as follows: Receptor binding test RB3, [3H] Spiperone ligand, D-Lysergide specific binding agent.
Description: as §1, §2

The next series has as its system trained fasted rats. As to the kind of experiment: Conditioned Avoidance Response (CAR), attenuation of avoidance response to electrical shock. It is filed as in vivo. The note with it: Rattus norvegicus. The source says:
(§3) The following in vivo test systems (Table 2) are illustrative of the conventional testing used to classify and differentiate a psychotropic agent from a non-specific CNS depressant.

In a further series the test system is dopaminergic activity. The series is described as follows: Inhibition of Apomorphine-Induced (APO) Stereotypy, blockade of dopaminergic activity. It counts as in vivo, rats. The conditions noted are these: Rattus norvegicus, read-out: APO ED50. An excerpt: The following in vivo test systems (Table 2) are illustrative of the conventional testing used to classify and differentiate a psychotropic agent from a non-specific CNS depressant. |2. Inhibition of Apomorphine-Induced (APO) Stereotypy - | an assessment of blockade of dopaminergic activity in rats | as measured by attenuation of the behavioral syndrome | caused by the dopamine agonist, apomorphine. cf: Janssen, | et al, Arzneimittel.

Series [3] deals with T2, Serotonin Type 1A (5-HT1A) (Bos taurus, UniProt F6Q2H9).
T2 construct: from tissue
T2 sequence (F6Q2H9 1-422): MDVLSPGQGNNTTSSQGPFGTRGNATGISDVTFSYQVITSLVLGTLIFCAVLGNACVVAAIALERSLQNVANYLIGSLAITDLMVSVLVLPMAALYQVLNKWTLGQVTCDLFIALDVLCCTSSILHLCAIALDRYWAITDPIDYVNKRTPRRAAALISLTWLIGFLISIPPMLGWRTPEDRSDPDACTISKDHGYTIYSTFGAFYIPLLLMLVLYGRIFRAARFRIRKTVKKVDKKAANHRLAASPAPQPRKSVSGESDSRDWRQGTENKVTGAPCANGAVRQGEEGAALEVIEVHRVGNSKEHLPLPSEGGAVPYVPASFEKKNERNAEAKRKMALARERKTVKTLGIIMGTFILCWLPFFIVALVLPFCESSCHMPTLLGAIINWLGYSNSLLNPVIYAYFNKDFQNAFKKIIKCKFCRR
The series is described as follows: Receptor binding test RB4, [3H] 8-OH-DPAT ligand, 8-OH-DPAT specific binding agent.
Description: as §1, §2

Series [4] concerns the target T1, Serotonin Type 2 (5-HT2). The note with it: background statement; cited from earlier work.
The subject of series [5] is Serotonin Type 1A (5-HT1A). The note with it: background statement; cited from earlier work.
A further series deals with sigma receptor. The note with it: background statement; cited from earlier work.
For series [6], the system named is alpha-adrenergic receptor. The note with it: background statement; cited from earlier work.
In the next series the test system is dopamine D2 receptors. The conditions noted are these: background statement; cited from earlier work.
In the next series the test system is dopamine receptor. The note with it: following chronic administration; background statement; cited from earlier work.
Series [7] concerns central nervous system receptor. As to the kind of experiment: in vitro receptor binding (RB) tests, overall (Table 6).
Description: As indication of the psychotropic activity and specificity of a compound, state of the art in vitro central nervous system receptor binding (RB) methodology can be employed. Certain compounds (commonly referred to as ligands) have been identified which preferentially bind to specific high affinity sites in brain tissue dealing with psychotropic activity. Inhibition of radiolabeled ligand binding at such sites is considered a measure of the test compound's ability to affect corresponding central nervous system function in vivo.
as §2

In a further series the test system is psychotropic activity. As to the kind of experiment: in vivo screens predictive of antipsychotic activity, overall (Table 7). Also noted: species or system rats. The conditions noted are these: compared to tiospirone.
Description: as §3
1. Conditioned Avoidance Response (CAR) - measure of a
drug's tranquilizing activity as determined by its'
attenuation of avoidance response to electrical shock in
trained fasted rats. cf: Albert, Pharmacologist, -4, 152 (1962);
2. Inhibition of Apomorphine-Induced (APO) Stereotypy -
an assessment of blockade of dopaminergic activity in rats
as measured by attenuation of the behavioral syndrome
caused by the dopamine agonist, apomorphine. cf: Janssen,
et al, Arzneimittel. Forsch., --17, 841 (1966).

T1 sequence (P14842 whole entry): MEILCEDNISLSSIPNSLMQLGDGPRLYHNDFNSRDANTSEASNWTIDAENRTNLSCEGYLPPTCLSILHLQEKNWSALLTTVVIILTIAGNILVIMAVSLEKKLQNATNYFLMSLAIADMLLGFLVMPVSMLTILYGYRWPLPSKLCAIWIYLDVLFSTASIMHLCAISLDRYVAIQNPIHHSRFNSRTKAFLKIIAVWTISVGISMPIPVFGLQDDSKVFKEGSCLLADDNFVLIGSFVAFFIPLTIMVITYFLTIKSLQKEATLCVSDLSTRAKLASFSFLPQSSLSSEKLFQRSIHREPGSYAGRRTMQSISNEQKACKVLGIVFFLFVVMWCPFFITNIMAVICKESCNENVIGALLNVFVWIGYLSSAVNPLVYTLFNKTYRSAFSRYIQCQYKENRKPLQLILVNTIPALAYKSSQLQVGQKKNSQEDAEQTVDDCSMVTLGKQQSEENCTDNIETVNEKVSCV

As to `O=C1CC2(CCCC2)CC(=O)N1CCCCN1CCN(C2=NS(=O)(=O)c3ccccc32)CC1` [Reference # 1], the values for the concentration for half-maximal inhibition (IC50) (in series [1]; at Alpha-1; at Serotonin Type 2 (5-HT2) [2]) were greater than 1000 nM, 274 nM and 25000 nM, respectively. Further, the ED50 in the series with trained fasted rats (po) and in the series with dopaminergic activity (po) was greater than 100 mg/kg throughout.

In the case of `O=C1CC2(CCC(O)C2)CC(=O)N1CCCCN1CCN(c2nsc3ccccc23)CC1` (centres unmarked) [Reference # 2, 2-Hydroxy-8-[4-[4-(1,2-benzisothiazol-3-yl)-1-piperazinyl]butyl]-8-azaspiro[4.5]decane-7,9-dione], the IC50 is 52.5 nM in series [1], 0.876 nM on Alpha-1 and 2.05 nM at Serotonin Type 2 (5-HT2) [2]. Moreover, the ED50 with trained fasted rats (po) was greater than 100 mg/kg.

As for `O=C1CC2(CCC(O)C2)CC(=O)N1CCCCN1CCN(c2n[s+]([O-])c3ccccc23)CC1` (centres unmarked) [Reference # 3], the IC50 in [1] is greater than 100000 nM; at Alpha-1, 372 nM; at Serotonin Type 2 (5-HT2) [2], 1480 nM; in series [3] (read-out: RB4 IC50) it was 1850 nM.

Consider `O=C1CCC2(C1)CC(=O)N(CCCCN1CCN(c3nsc4ccccc34)CC1)C(=O)C2` [Reference # 5, 2-Oxo-8-[4-[4-(1,2-benzisothiazol-3-yl)-1-piperazinyl]butyl]-8-azaspiro[4.5]decane-7,9-dione], for which the IC50 turned out to be 68.3 nM in [1], 1.3 nM on Alpha-1 and 2.92 nM on Serotonin Type 2 (5-HT2) [2]. In addition, the ED50 in the series on trained fasted rats (sc) was 60.3 mg/kg; in the series on dopaminergic activity (sc), greater than 50 mg/kg.

For the molecule `O=C1CC2(CCCC2)CC(=O)N1CCC(O)CN1CCN(c2nsc3ccccc23)CC1` (centres unmarked) [Reference # 7], the IC50 stood at 111 nM in [1], 8.3 nM at Alpha-1 and 10.2 nM on Serotonin Type 2 (5-HT2) [2]. The ED50 with trained fasted rats (po) was greater than 80 mg/kg.

As for `O=C1CC2(CCC(O)C2)CC(=O)N1CCC(O)CN1CCN(c2nsc3ccccc23)CC1` (centres unmarked) [Reference # 9], the IC50 in series [1] worked out at 491 nM; at Alpha-1 it was 7.15 nM; at Serotonin Type 2 (5-HT2) [2], 19.8 nM.

`O=C1CC2(CCCC2)C(O)C(=O)N1CCCCN1CCN(c2nsc3ccccc23)CC1` (centres unmarked) [Reference # 10, 8-[4-[4-(1,2-Benzisothiazol-3-yl)-1-piperazinyl]butyl]-6-hydroxy-8-azaspiro[-4.5]decane-7,9-dione]: the IC50 on Serotonin Type 2 (5-HT2) [2] amounted to 1.1 nM. For the same molecule, the values for the ED50 in the series with trained fasted rats (po) and with dopaminergic activity (po) were 8.4 mg/kg and 26 mg/kg, respectively.

As for `CCCCCCCCCC(=O)OC1CCC2(CC(=O)N(CCCCN3CCN(c4nsc5ccccc45)CC3)C(=O)C2)C1` (centres unmarked) [Reference # 12, 8-[4-[4-(1,2-Benzisothiazol-3-yl)-1-piperazinyl]butyl]-7,9-dioxo-8-azaspiro[4.5]decan-2-yl Decanoate], the IC50 in series [1] was found to be 153 nM; on Alpha-1, 7.22 nM; on Serotonin Type 2 (5-HT2) [2], 10.2 nM; in [3] (read-out: RB4 IC50), 35.8 nM.

Regarding `c1ccc2c(N3CCNCC3)nsc2c1` [Reference # 14, 4-(1,2-benzisothiazol-3-yl)1H-piperazine], the IC50 is greater than 1000 nM in series [1], 510 nM on Alpha-1, 110 nM at Serotonin Type 2 (5-HT2) [2] and 179 nM in series [3].

Take `O=C1CN(C2=NS(=O)(=O)c3ccccc32)CCN1` [Reference # 17, 4-(1,2-Benzisothiazol-1,1-dioxo-3-yl)-2-oxo-lH-piperazine]: the IC50 is 13100 nM at Alpha-1, greater than 100000 nM on Serotonin Type 2 (5-HT2) [2] and greater than 1000 nM in [3] (read-out: RB4 IC50).

Turning to `CC(C)(C)OC(=O)N1CCN(C2=NS(=O)(=O)c3ccccc32)CC1` [Reference # 18, 1,1-Dimethylethyl 4-(1,2-Benzisothiazol-1,1-dioxo-3-yl)-1piperazinecarboxylate], the values for the IC50 (in series [1]; on Alpha-1; in series [3] (read-out: RB4 IC50)) were greater than 1000 nM, greater than 100000 nM and greater than 100000 nM, respectively.

At Alpha-1, `O=C1CC2(CCCC2)CC(=O)N1CCCCN1CCN(c2nsc3ccccc23)CC1` [Reference # i, 8-[4-[4-(1,2-benzisothiazol-3-yl)-1-piperazinyl]butyl]-8-azaspiro[4.5]decane-7,9-dione] gave an IC50 of 47 nM. Also, the ED50 with trained fasted rats (po) amounted to 10.9 mg/kg; with dopaminergic activity (po) it was 13.1 mg/kg. Moreover, the “in vitro interactions at serotonin 5-HT2 receptors” value at Serotonin Type 2 (5-HT2) [4] is “potent”. The “in vitro interactions at serotonin 5-HT1A receptors” value in [5] is recorded as “potent”. For the same molecule, the “in vitro interactions at sigma receptor sites” value with sigma receptor is on record as “potent”. In addition, the “in vitro interactions at alpha-adrenergic receptor sites” value in series [6] is recorded as “potent”. The “in vitro affinity for dopamine D2 receptors” value in the series on dopamine D2 receptors is on record as “appreciable”. The dopamine receptor supersensitivity entry in the series on dopamine receptor was “does not cause dopamine receptor supersensitivity”.

For `O=C1CC2(CCCC2)CC(=O)N1CCCCN1CCN(c2n[s+]([O-])c3ccccc23)CC1` (centres unmarked) [Reference # ii, 8-[4-[4-(1-oxo-l,2-benzisothiazol-3-yl) -1-piperazinyl]butyl]-8-azaspiro[4.5]decane-7,9-dione, reference compound], the IC50 in series [1] was determined as 3490 nM; at Alpha-1, 331 nM; at Serotonin Type 2 (5-HT2) [2] it was 276 nM; in series [3] (read-out: RB4 IC50) it was 1120 nM. For the same molecule, the ED50 with trained fasted rats (po) came to 7.6 mg/kg; with dopaminergic activity (po) it was 9.6 mg/kg. Also, in [7], the “in vitro binding affinity compared to tiospirone” value is “attenuation of in vitro binding affinity”. In the series on psychotropic activity, the “potency in in vivo screens predictive of antipsychotic activity” value is reported as “did not affect its potency”.

In general, IC50 refers to the concentration that inhibits the measured activity by half. As a reminder, the ED50 is the dose at which the effect has come halfway, by size or by number of responders.
